From patent publication US11242337B2, “Compounds useful for treating gastrointestinal tract disorders” (Ardelyx, Inc., priority 2017, dated 2022)

Experiments:
NHE3 [1] = target: T1, NHE3 (Homo sapiens, UniProt P48764); experiment: Cell-based assay of NHE-3 activity (pre-incubation inhibition), human; conditions: human Preincubation; for pIC50: 0-30 μM test compound
T1 construct: expressed in transfected cells
T1 sequence (P48764 26-834): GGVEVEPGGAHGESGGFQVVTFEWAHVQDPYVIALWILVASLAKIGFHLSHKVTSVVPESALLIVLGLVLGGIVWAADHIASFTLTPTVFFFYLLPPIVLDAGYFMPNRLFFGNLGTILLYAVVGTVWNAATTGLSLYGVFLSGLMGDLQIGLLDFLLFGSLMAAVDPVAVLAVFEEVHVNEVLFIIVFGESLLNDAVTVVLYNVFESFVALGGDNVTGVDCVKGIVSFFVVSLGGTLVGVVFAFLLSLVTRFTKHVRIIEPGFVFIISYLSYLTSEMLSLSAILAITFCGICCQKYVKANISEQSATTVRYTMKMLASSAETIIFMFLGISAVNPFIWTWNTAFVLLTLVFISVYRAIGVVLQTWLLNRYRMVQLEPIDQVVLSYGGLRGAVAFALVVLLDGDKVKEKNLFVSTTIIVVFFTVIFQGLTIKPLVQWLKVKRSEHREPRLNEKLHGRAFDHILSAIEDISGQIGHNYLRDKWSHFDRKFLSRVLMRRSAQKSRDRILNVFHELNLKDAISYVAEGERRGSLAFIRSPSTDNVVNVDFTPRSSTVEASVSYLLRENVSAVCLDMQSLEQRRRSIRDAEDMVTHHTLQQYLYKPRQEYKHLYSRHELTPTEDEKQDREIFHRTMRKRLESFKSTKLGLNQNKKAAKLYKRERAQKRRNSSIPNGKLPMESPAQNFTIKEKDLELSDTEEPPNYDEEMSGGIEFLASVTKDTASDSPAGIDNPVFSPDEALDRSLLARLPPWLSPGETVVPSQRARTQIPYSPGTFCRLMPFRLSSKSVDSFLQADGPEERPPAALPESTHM
T1 sequence (Q99653 2-195 partner limits assumed): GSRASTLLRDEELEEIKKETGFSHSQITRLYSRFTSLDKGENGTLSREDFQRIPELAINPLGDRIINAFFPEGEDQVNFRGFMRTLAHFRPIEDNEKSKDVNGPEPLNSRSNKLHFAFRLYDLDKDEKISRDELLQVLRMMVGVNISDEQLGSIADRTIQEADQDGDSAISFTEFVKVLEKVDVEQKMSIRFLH
Summary of the method: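 Activity read as initial rate of BCECF fluorescence ratio change per minute (ex 439/505, em 538 nm) following NH4Cl prepulse acid loading. Compound (0–30 μM) present during 10 min Na+-free acidification at room temperature; cells were PS120 fibroblasts stably co-expressing human NHE3 and NHERF2.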

NHE3 [2] = target: T1, NHE3; experiment: Cell-based assay of NHE-3 activity (persistent inhibition), human; conditions: human Persistence, 60 min incubation then washout
Summary of the method: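 Persistent inhibition: compound (0-30 μM, 60 min, RT, NaCl-HEPES pH 7.4) removed before assay. Human NHE3/NHERF2 PS120 cells were then BCECF-loaded during NH4Cl pulse (30 min, 37 °C), acidified in Na+-free buffer, and Na+ added 10 min after washout; antiport measured as initial fluorescence-ratio change per minute.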

Row | Compound | % inhibition (NHE3 [1]) | pIC50 (NHE3 [1]) | % inhibition (NHE3 [2]) | pIC50 (NHE3 [2])
1 | COc1cc(O[C@H]2c3cc(Cl)cc(Cl)c3C[C@@H]2N2CCC[C@@H](N)C2)ccc1S(=O)(=O)NCCOCCOCCNC(=O)NCCCCNC(=O)NCCOCCOCCNS(=O)(=O)c1ccc(O[C@H]2c3cc(Cl)cc(Cl)c3C[C@@H]2N2CCC[C@@H](N)C2)cc1OC [Example 101, 1-[2-(2-[2-[(4-[[(1S,2S)-2-[(3R)-3-Aminopiperidin-1-yl]-4,6-dichloro-2,3-dihydro-1H-inden-1-yl]oxy]-2-methoxybenzene)sulfonamido]ethoxy]ethoxy)ethyl]-3-[4-([[2-(2-[2-[(4-[[(1S,2S)-2-[(3R)-3-aminopiperidin-1-yl]-4,6-dichloro-2,3-dihydro-1H-inden-1-yl]oxy]-2-methoxybenzene)sulfonamido]ethoxy]ethoxy)ethyl]carbamoyl]amino)butyl]urea] | C (>70%) | C (NHE3 pIC50 > 7) | B (40-70%) | C (NHE3 pIC50 > 7)
2 | Cc1cc(O[C@H]2c3cc(Cl)cc(Cl)c3C[C@@H]2N2CCC[C@@H](N)C2)ccc1S(=O)(=O)NCCOCCOCCNC(=O)NCCCCNC(=O)NCCOCCOCCNS(=O)(=O)c1ccc(O[C@H]2c3cc(Cl)cc(Cl)c3C[C@@H]2N2CCC[C@@H](N)C2)cc1C [Example 102, 3-[2-(2-[2-[(4-[[(1S,2S)-2-[(3R)-3-Aminopiperidin-1-yl]-4,6-dichloro-2,3-dihydro-1H-inden-1-yl]oxy]-2-methylbenzene)sulfonamido]ethoxy]ethoxy)ethyl]-1-[4-([[2-(2-[2-[(4-[[(1S,2S)-2-[(3R)-3-aminopiperidin-1-yl]-4,6-dichloro-2,3-dihydro-1H-inden-1-yl]oxy]-2-methylbenzene)sulfonamido]ethoxy]ethoxy)ethyl]carbamoyl]amino)butyl]urea] | C (>70%) | C (NHE3 pIC50 > 7) | C (>70%) | C (NHE3 pIC50 > 7)
3 | N[C@@H]1CCCN([C@H]2Cc3c(Cl)cc(Cl)cc3[C@@H]2Oc2ccc(S(=O)(=O)NCCOCCOCCNC(=O)NCCCCNC(=O)NCCOCCOCCNS(=O)(=O)c3ccc(O[C@H]4c5cc(Cl)cc(Cl)c5C[C@@H]4N4CCC[C@@H](N)C4)cc3F)c(F)c2)C1 [Example 103, 1-[2-(2-[2-[(4-[[(1S,2S)-2-[(3R)-3-Aminopiperidin-1-yl]-4,6-dichloro-2,3-dihydro-1H-inden-1-yl]oxy]-2-fluorobenzene)sulfonamido]ethoxy]ethoxy)ethyl]-3-[4-([[2-(2-[2-[(4-[[(1S,2S)-2-[(3R)-3-aminopiperidin-1-yl]-4,6-dichloro-2,3-dihydro-1H-inden-1-yl]oxy]-2-fluorobenzene)sulfonamido]ethoxy]ethoxy)ethyl]carbamoyl]amino)butyl]urea] | C (>70%) | C (NHE3 pIC50 > 7) | C (>70%) | C (NHE3 pIC50 > 7)
4 | N[C@@H]1CCCN([C@H]2Cc3c(Cl)cc(Cl)cc3[C@@H]2Oc2ccc(S(=O)(=O)NCCOCCOCCNC(=O)NCCCCNC(=O)NCCOCCOCCNS(=O)(=O)c3ccc(O[C@H]4c5cc(Cl)cc(Cl)c5C[C@@H]4N4CCC[C@@H](N)C4)cc3Cl)c(Cl)c2)C1 [Example 104] | C (>70%) | C (NHE3 pIC50 > 7) | C (>70%) | C (NHE3 pIC50 > 7)
5 | N#Cc1cc(Cl)cc2c1C[C@H](N1CCNCC1)[C@H]2Oc1ccc(S(=O)(=O)N[C@@H]2CCN(CCOCCNC(=O)NCCCCNC(=O)NCCOCCN3CC[C@@H](NS(=O)(=O)c4ccc(O[C@H]5c6cc(Cl)cc(C#N)c6C[C@@H]5N5CCNCC5)cc4)C3)C2)cc1 [Example 108, 4-([(1S,2S)-6-Chloro-4-cyano-2-(piperazin-1-yl)-2,3-dihydro-1H-inden-1-yl]oxy)-N—[(R)-1-(20-[(R)-3-([4-([(1S2S)-6-chloro-4-cyano-2-(piperazin-1-yl)-2,3-dihydro-1H-inden-1-yl]oxy)phenyl]sulfonamido)pyrrolidin-1-yl]-7,14-dioxo-3,18-dioxa-6,8,13,15-tetraazaicosyl)pyrrolidin-3-yl]benzenesulfonamide; tetra(trifluoroacetate)] | C (>70%) | C (NHE3 pIC50 > 7) | C (>70%) | C (NHE3 pIC50 > 7)
6 | CN(C)[C@H]1Cc2c(Cl)cc(Cl)cc2[C@@H]1Oc1ccc(S(=O)(=O)N[C@H]2CCN(CCOCCNC(=O)NCCCCNC(=O)NCCOCCN3CC[C@H](NS(=O)(=O)c4ccc(O[C@H]5c6cc(Cl)cc(Cl)c6C[C@@H]5N(C)C)c(F)c4)C3)C2)cc1F [Example 111, 4-([(1S,2S)-4,6-Dichloro-2-(dimethylamino)-2,3-dihydro-1H-inden-1-yl]oxy)-N—[(S)-1-(20-[(S)-3-([4-([(1S,2S)-4,6-dichloro-2-(dimethylamino)-2,3-dihydro-1H-inden-1-yl]oxy)-3-fluorophenyl]sulfonamido)pyrrolidin-1-yl]-7,14-dioxo-3,18-dioxa-6,8,13,15-tetraazaicosyl)pyrrolidin-3-yl)-3-fluorobenzenesulfonamide; tetra(trifluoroacetate)] | C (>70%) | C (NHE3 pIC50 > 7) | C (>70%) | C (NHE3 pIC50 > 7)
7 | CN(C)[C@H]1Cc2c(Cl)cc(Cl)cc2[C@@H]1Oc1ccc(S(=O)(=O)N[C@@H]2CCN(CCOCCNC(=O)NCCCCNC(=O)NCCOCCN3CC[C@@H](NS(=O)(=O)c4ccc(O[C@H]5c6cc(Cl)cc(Cl)c6C[C@@H]5N(C)C)c(F)c4)C3)C2)cc1F [Example 112, 4-([(1S,2S)-4,6-Dichloro-2-(dimethylamino)-2,3-dihydro-1H-inden-1-yl]oxy)-N—[(R)-1-(20-[(R)-3-([4-([(1S,2S)-4,6-dichloro-2-(dimethylamino)-2,3-dihydro-1H-inden-1-yl]oxy)-3-fluorophenyl]sulfonamido)pyrrolidin-1 yl]-7,14-dioxo-3,18-dioxa-6,8,13,15-tetraazaicosyl)pyrrolidin-3-yl)-3-fluorobenzenesulfonamide; tetra(trifluoroacetate)] | C (>70%) | C (NHE3 pIC50 > 7) | C (>70%) | C (NHE3 pIC50 > 7)
8 | Cc1cc(S(=O)(=O)N[C@@H]2CCN(CCOCCNC(=O)NCCCCNC(=O)NCCOCCN3CC[C@@H](NS(=O)(=O)c4ccc(O[C@H]5c6cc(Cl)cc(C)c6C[C@@H]5N5CCC[C@@H](N(C)C)C5)c(C)c4)C3)C2)ccc1O[C@H]1c2cc(Cl)cc(C)c2C[C@@H]1N1CCC[C@@H](N(C)C)C1 [Example 113, 4-([(1S,2S)-6-Chloro-2-[(R)-3-(dimethylamino)piperidin-1-yl]-4-methyl-2,3-dihydro-1H-inden-1-yl]oxy)-N—[(R)-1-(20-[(R)-3-([4-([(1S,2S)-6-chloro-2-[(R)-3-(dimethylamino)piperidin-1-yl]-4-methyl-2,3-dihydro-1H-inden-1-yl]oxy)-3-methylphenyl]sulfonamido)pyrrolidin-1-yl]-7,14-dioxo-3,18-dioxa-6,8,13,15-tetraazaicosyl)pyrrolidin-3-yl]-3-methylbenzenesulfonamide; tetra(trifluoroacetate)] | C (>70%) | C (NHE3 pIC50 > 7) | C (>70%) | C (NHE3 pIC50 > 7)
9 | Cc1cc(S(=O)(=O)N[C@H]2CCN(CCOCCNC(=O)NCCCCNC(=O)NCCOCCN3CC[C@H](NS(=O)(=O)c4ccc(O[C@H]5c6cc(Cl)cc(C)c6C[C@@H]5N5CCC[C@@H](N(C)C)C5)c(C)c4)C3)C2)ccc1O[C@H]1c2cc(Cl)cc(C)c2C[C@@H]1N1CCC[C@@H](N(C)C)C1 [Example 114, 4-([(1S,2S)-6-Chloro-2-[(R)-3-(dimethylamino)piperidin-1-yl]-4-methyl-2,3-dihydro-1H-inden-1-yl]oxy)-N—[(S)-1-(20-[(S)-3-([4-([(1S,2S)-6-chloro-2-[(R)-3-(dimethylamino)piperidin-1-yl]-4-methyl-2,3-dihydro-1H-inden-1-yl]oxy)-3-methylphenyl]sulfonamido)pyrrolidin-1-yl]-7,14-dioxo-3,18-dioxa-6,8,13,15-tetraazaicosyl)pyrrolidin-3-yl]-3-methylbenzenesulfonamide; tetra(trifluoroacetate)] | C (>70%) | C (NHE3 pIC50 > 7) | C (>70%) | C (NHE3 pIC50 > 7)
